Reference: US6852754B1, “Biologically active linderazulene terpenes” (Harbor Branch Oceanographic Institution, Inc., priority 2004, dated 2005)

What was measured:
[1] = system: PANC-1 human pancreatic cell line; assay: Antiproliferative MTT assay, PANC-1 cells, 72 hours exposure; type: cell-based
Procedure: (§1) Compounds I and II was analyzed as to their effect on the proliferation of PANC-1 human pancreatic and P388 murine leukemia cell lines. P388 cells were obtained from Dr. R. Camalier, National Cancer Institute, Bethesda, Md., and PANC-1 cells were obtained from American Type Culture Collection, Rockville, Md. All cell lines were maintained in tissue culture medium (TCM; Roswell Park Memorial Institute RPMI 1640 supplemented with 100 U/mL penicillin, […] streptomycin, […] 1-glutamine, 18 mM HEPES, 0.05 mg/mL gentamicin (Life Technologies, Gaithersburg, Md.) and 10% fetal bovine serum) and cultured in plastic tissue culture flasks at 37° C. in humidified air containing 5% CO2. Stock cultures of P388 cells were subcultured 1:20 in fresh TCM every 2 to 3 days. Stock cultures of […] cells were subcultured 1:10 every 3 to 4 days. To assess the antiproliferative effects of agents against the cells, […] cultures (96-well tissue culture plates, Nunc, Denmark) were established at 1×10^5 cells/mL in TCM or TCM containing the test agent at 0.03-5.0 μg/mL. After 48-h exposures, P388 cells were enumerated using 3-[4,5-dimethylthiazol-2-yl]-2,5-diphenyltetrazolium bromide (MTT) as described in the literature (M. C. Alley, et al., Cancer Res. 48:589, 1988). […] The results were expressed as percent inhibition compared to the negative (no drug) control. […]

[2] = system: P388 murine leukemia cell line; assay: Antiproliferative MTT assay, P388 cells, 48-h exposure; type: cell-based; settings: Mus musculus, read-out: P388 (IC50 μg/ml)
Procedure: as §1

SMILES	IC50 ([1]; Homo sapiens, read-out: PANC-1 (IC50 μg/ml))	IC50 [2]	PANC-1 (IC50 μg/ml) [1]
COC(=O)c1ccc2c(C)cc3occc3cc1-2 [11-carbomethoxylinderazulene (I), 11-carbomethoxylinderazulene]	18.7 µg/mL	2.7 µg/mL	–
Cc1cc2occc2cc2c(C=O)ccc1-2 [11-formyllinderazulene (II), 11-formyllinderazulene]	–	15.6 µg/mL	No inhibition of cell
